According to BindingDB's records for doi:10.1016/s0960-894x(99)00004-9 (Smithkline Beecham Pharmaceuticals, 1999):

Assays:
[1] = Inhibitory activity against cytomegalovirus (CMV) protease was determined using quenched fluorescence assay
[2] = Inhibitory activity against Varicella Zoster Virus (VZV) protease was determined using quenched fluorescence assay

Row | Structure (SMILES) | IC50 [1] | IC50 [2]
1 | Cc1cc(/C=C/C(=O)N[C@@H](C)c2nc3scc(C)c3c(=O)o2)c(C)s1 [(E)-3-(2,5-Dimethyl-thiophen-3-yl)-N-[(S)-1-(5-methyl-4-oxo-4H-thieno[2,3-d][1,3]oxazin-2-yl)-ethyl]-acrylamide] | 0.23 µM | 0.007 µM
2 | Cc1csc2nc([C@H](C)NC(=O)/C=C/c3c(Cl)cccc3Cl)oc(=O)c12 [(E)-3-(2,6-Dichloro-phenyl)-N-[(S)-1-(5-methyl-4-oxo-4H-thieno[2,3-d][1,3]oxazin-2-yl)-ethyl]-acrylamide] | > 34 µM | 0.01 µM
3 | Cc1csc2nc([C@H](C)NC(=O)/C=C/c3c(F)cccc3F)oc(=O)c12 [(E)-3-(2,6-Difluoro-phenyl)-N-[(S)-1-(5-methyl-4-oxo-4H-thieno[2,3-d][1,3]oxazin-2-yl)-ethyl]-acrylamide] | 1.7 µM | 0.06 µM
4 | COc1cccc(OC)c1/C=C/C(=O)N[C@@H](C)c1nc2scc(C)c2c(=O)o1 [(E)-3-(2,6-Dimethoxy-phenyl)-N-[(S)-1-(5-methyl-4-oxo-4H-thieno[2,3-d][1,3]oxazin-2-yl)-ethyl]-acrylamide] | 21 µM | 0.18 µM
5 | Cc1csc2nc([C@H](C)NC(=O)/C=C/c3ccccc3Br)oc(=O)c12 [(E)-3-(2-Bromo-phenyl)-N-[(S)-1-(5-methyl-4-oxo-4H-thieno[2,3-d][1,3]oxazin-2-yl)-ethyl]-acrylamide] | 0.38 µM | 0.039 µM
6 | Cc1csc2nc([C@H](C)NC(=O)/C=C/c3ccsc3Br)oc(=O)c12 [(E)-3-(2-Bromo-thiophen-3-yl)-N-[(S)-1-(5-methyl-4-oxo-4H-thieno[2,3-d][1,3]oxazin-2-yl)-ethyl]-acrylamide] | 0.62 µM | 0.051 µM
7 | Cc1csc2nc([C@H](C)NC(=O)/C=C/c3ccc(O)cc3Cl)oc(=O)c12 [(E)-3-(2-Chloro-4-hydroxy-phenyl)-N-[(S)-1-(5-methyl-4-oxo-4H-thieno[2,3-d][1,3]oxazin-2-yl)-ethyl]-acrylamide] | – | 0.015 µM
8 | Cc1csc2nc([C@H](C)NC(=O)/C=C/c3c(F)cccc3Cl)oc(=O)c12 [(E)-3-(2-Chloro-6-fluoro-phenyl)-N-[(S)-1-(5-methyl-4-oxo-4H-thieno[2,3-d][1,3]oxazin-2-yl)-ethyl]-acrylamide] | 2 µM | 0.036 µM
9 | Cc1csc2nc([C@H](C)NC(=O)/C=C/c3ccccc3Cl)oc(=O)c12 [(E)-3-(2-Chloro-phenyl)-N-[(S)-1-(5-methyl-4-oxo-4H-thieno[2,3-d][1,3]oxazin-2-yl)-ethyl]-acrylamide] | 0.38 µM | 0.035 µM
10 | CCOc1ccccc1/C=C/C(=O)N[C@@H](C)c1nc2scc(C)c2c(=O)o1 [(E)-3-(2-Ethoxy-phenyl)-N-[(S)-1-(5-methyl-4-oxo-4H-thieno[2,3-d][1,3]oxazin-2-yl)-ethyl]-acrylamide] | 0.51 µM | 0.015 µM
11 | COc1cc(/C=C/C(=O)N[C@@H](C)c2nc3scc(C)c3c(=O)o2)cc(OC)c1 [(E)-3-(3,5-Dimethoxy-phenyl)-N-[(S)-1-(5-methyl-4-oxo-4H-thieno[2,3-d][1,3]oxazin-2-yl)-ethyl]-acrylamide] | 8.5 µM | 0.021 µM
12 | Cc1csc2nc([C@H](C)NC(=O)/C=C/c3sccc3Br)oc(=O)c12 [(E)-3-(3-Bromo-thiophen-2-yl)-N-[(S)-1-(5-methyl-4-oxo-4H-thieno[2,3-d][1,3]oxazin-2-yl)-ethyl]-acrylamide] | 1.11 µM | 0.058 µM
13 | Cc1csc2nc([C@H](C)NC(=O)/C=C/c3cccc(Cl)c3)oc(=O)c12 [(E)-3-(3-Chloro-phenyl)-N-[(S)-1-(5-methyl-4-oxo-4H-thieno[2,3-d][1,3]oxazin-2-yl)-ethyl]-acrylamide] | – | 0.042 µM
14 | Cc1csc2nc([C@H](C)NC(=O)/C=C/c3cc(Br)cs3)oc(=O)c12 [(E)-3-(4-Bromo-thiophen-2-yl)-N-[(S)-1-(5-methyl-4-oxo-4H-thieno[2,3-d][1,3]oxazin-2-yl)-ethyl]-acrylamide] | 1.12 µM | 0.033 µM
15 | Cc1csc2nc([C@H](C)NC(=O)/C=C/c3ccc(N(C)C)cc3)oc(=O)c12 [(E)-3-(4-Dimethylamino-phenyl)-N-[(S)-1-(5-methyl-4-oxo-4H-thieno[2,3-d][1,3]oxazin-2-yl)-ethyl]-acrylamide] | 1.8 µM | 0.038 µM
16 | Cc1csc2nc([C@H](C)NC(=O)/C=C/c3ccc(C=O)cc3)oc(=O)c12 [(E)-3-(4-Formyl-phenyl)-N-[(S)-1-(5-methyl-4-oxo-4H-thieno[2,3-d][1,3]oxazin-2-yl)-ethyl]-acrylamide] | 2.4 µM | 0.094 µM
17 | Cc1csc2nc([C@H](C)NC(=O)/C=C/c3ccc(Br)o3)oc(=O)c12 [(E)-3-(5-Bromo-furan-2-yl)-N-[(S)-1-(5-methyl-4-oxo-4H-thieno[2,3-d][1,3]oxazin-2-yl)-ethyl]-acrylamide] | 0.18 µM | 0.041 µM

Row | Structure (SMILES) | IC50 [1] | IC50 [2]
18 | Cc1csc2nc([C@H](C)NC(=O)/C=C/c3ccc(Br)s3)oc(=O)c12 [(E)-3-(5-Bromo-thiophen-2-yl)-N-[(S)-1-(5-methyl-4-oxo-4H-thieno[2,3-d][1,3]oxazin-2-yl)-ethyl]-acrylamide] | 0.21 µM | 0.008 µM
19 | Cc1csc2nc([C@H](C)NC(=O)/C=C/c3ccc(Cl)s3)oc(=O)c12 [(E)-3-(5-Chloro-thiophen-2-yl)-N-[(S)-1-(5-methyl-4-oxo-4H-thieno[2,3-d][1,3]oxazin-2-yl)-ethyl]-acrylamide] | 0.28 µM | 0.017 µM
20 | Cc1csc2nc([C@H](C)NC(=O)/C=C/c3cccn3C)oc(=O)c12 [(E)-N-[(S)-1-(5-Methyl-4-oxo-4H-thieno[2,3-d][1,3]oxazin-2-yl)-ethyl]-3-(1-methyl-1H-pyrrol-2-yl)-acrylamide] | 0.22 µM | 0.029 µM
21 | Cc1csc2nc([C@H](C)NC(=O)/C=C/c3ccccc3[N+](=O)[O-])oc(=O)c12 [(E)-N-[(S)-1-(5-Methyl-4-oxo-4H-thieno[2,3-d][1,3]oxazin-2-yl)-ethyl]-3-(2-nitro-phenyl)-acrylamide] | 2.2 µM | 0.076 µM
22 | Cc1ccsc1/C=C/C(=O)N[C@@H](C)c1nc2scc(C)c2c(=O)o1 [(E)-N-[(S)-1-(5-Methyl-4-oxo-4H-thieno[2,3-d][1,3]oxazin-2-yl)-ethyl]-3-(3-methyl-thiophen-2-yl)-acrylamide] | 0.67 µM | 0.29 µM
23 | Cc1csc2nc([C@H](C)NC(=O)/C=C/c3ccc([N+](=O)[O-])cc3)oc(=O)c12 [(E)-N-[(S)-1-(5-Methyl-4-oxo-4H-thieno[2,3-d][1,3]oxazin-2-yl)-ethyl]-3-(4-nitro-phenyl)-acrylamide] | 3.6 µM | 0.06 µM
24 | Cc1ccc(/C=C/C(=O)N[C@@H](C)c2nc3scc(C)c3c(=O)o2)s1 [(E)-N-[(S)-1-(5-Methyl-4-oxo-4H-thieno[2,3-d][1,3]oxazin-2-yl)-ethyl]-3-(5-methyl-thiophen-2-yl)-acrylamide] | 0.58 µM | 0.033 µM
25 | Cc1csc2nc([C@H](C)NC(=O)/C=C/c3ccc([N+](=O)[O-])s3)oc(=O)c12 [(E)-N-[(S)-1-(5-Methyl-4-oxo-4H-thieno[2,3-d][1,3]oxazin-2-yl)-ethyl]-3-(5-nitro-thiophen-2-yl)-acrylamide] | 0.9 µM | 0.054 µM
26 | Cc1ccccc1/C=C/C(=O)N[C@@H](C)c1nc2scc(C)c2c(=O)o1 [(E)-N-[(S)-1-(5-Methyl-4-oxo-4H-thieno[2,3-d][1,3]oxazin-2-yl)-ethyl]-3-o-tolyl-acrylamide] | – | 0.036 µM
27 | Cc1csc2nc([C@H](C)NC(=O)/C=C(\c3ccccc3)c3cccs3)oc(=O)c12 [(E)-N-[(S)-1-(5-Methyl-4-oxo-4H-thieno[2,3-d][1,3]oxazin-2-yl)-ethyl]-3-phenyl-3-thiophen-2-yl-acrylamide] | 0.3 µM | 0.016 µM
28 | Cc1csc2nc([C@H](C)NC(=O)/C=C/c3ccccc3)oc(=O)c12 [(E)-N-[(S)-1-(5-Methyl-4-oxo-4H-thieno[2,3-d][1,3]oxazin-2-yl)-ethyl]-3-phenyl-acrylamide] | 0.5 µM | 0.038 µM
29 | Cc1csc2nc([C@H](C)NC(=O)/C=C/c3ccccn3)oc(=O)c12 [(E)-N-[(S)-1-(5-Methyl-4-oxo-4H-thieno[2,3-d][1,3]oxazin-2-yl)-ethyl]-3-pyridin-2-yl-acrylamide] | 1.24 µM | 0.17 µM
30 | Cc1csc2nc([C@H](C)NC(=O)/C=C/c3ccnc4ccccc34)oc(=O)c12 [(E)-N-[(S)-1-(5-Methyl-4-oxo-4H-thieno[2,3-d][1,3]oxazin-2-yl)-ethyl]-3-quinolin-4-yl-acrylamide] | 1.1 µM | 0.019 µM
31 | Cc1csc2nc([C@H](C)NC(=O)/C=C/c3ccsc3)oc(=O)c12 [(E)-N-[(S)-1-(5-Methyl-4-oxo-4H-thieno[2,3-d][1,3]oxazin-2-yl)-ethyl]-3-thiophen-3-yl-acrylamide] | – | 0.089 µM
32 | Cc1csc2nc([C@H](C)NC(=O)C=C(c3cccs3)c3cccs3)oc(=O)c12 [N-[(S)-1-(5-Methyl-4-oxo-4H-thieno[2,3-d][1,3]oxazin-2-yl)-ethyl]-3,3-di-thiophen-2-yl-acrylamide] | 0.25 µM | 0.042 µM
33 | Cc1csc2nc([C@H](C)NC(=O)C=C(c3ccccc3)c3ccccc3)oc(=O)c12 [N-[(S)-1-(5-Methyl-4-oxo-4H-thieno[2,3-d][1,3]oxazin-2-yl)-ethyl]-3,3-diphenyl-acrylamide] | 0.91 µM | 0.037 µM
